{"source": "paper PMC4894409", "about": "(Scientific Reports, 2015)", "key": {"mice [1]": {"tested_on": "mice", "experiment": "Open field (OF) test", "type": "in vivo, Male Swiss mice", "method": "(§1) Male Swiss mice (weighing between 25–30 g; 6–8 weeks old), provided by Central Animal House of the Federal University of Goiás, were used in all behavioural models. The experimental animals were kept in an intra-laboratory facility cage (32 × 18 × 16 cm) under controlled environmental conditions (23 ± 1 °C, 12 hr light-dark cycle) with access to food and water ad libitum. The experimental protocols (number 104/08) were approved by Ethical Committee of Federal University of Goiás in accordance to the international laws on the care and use of laboratory animals.\nIn the OF, animals were randomly divided into six groups [control (vehicle), 3 different doses of OAD, DZP 1 or 5 mg/kg]. Animals were treated with vehicle, OAD (5, 10 or 20 mg/kg, p.o), DZP (1 or 5 mg/kg, p.o) as described in our previous work[7][49], and placed in a circular open field [base area ( [drawing 2] ) = 62.80 cm^2 which is divided into 8 equal sectors enclosed in a 50 cm high wooden wall]. The test session (5-min duration) was videotaped in a sound-proof experimental room. Parameters like total crossing, freezing time, number of grooming and rearing activity, crossing at the centre and time spent at the centre of the open field were observed and scored."}, "5-HT1A receptor": {"molecular_target": "T1, 5-HT1A receptor (Mus musculus, UniProt Q64264)", "T1 construct": "The hippocampi of mice were dissected and homogenized in 5 volumes of ice-cold buffer; from tissue; host or cells: mouse hippocampus membranes", "T1 sequence (Q64264 1-421)": "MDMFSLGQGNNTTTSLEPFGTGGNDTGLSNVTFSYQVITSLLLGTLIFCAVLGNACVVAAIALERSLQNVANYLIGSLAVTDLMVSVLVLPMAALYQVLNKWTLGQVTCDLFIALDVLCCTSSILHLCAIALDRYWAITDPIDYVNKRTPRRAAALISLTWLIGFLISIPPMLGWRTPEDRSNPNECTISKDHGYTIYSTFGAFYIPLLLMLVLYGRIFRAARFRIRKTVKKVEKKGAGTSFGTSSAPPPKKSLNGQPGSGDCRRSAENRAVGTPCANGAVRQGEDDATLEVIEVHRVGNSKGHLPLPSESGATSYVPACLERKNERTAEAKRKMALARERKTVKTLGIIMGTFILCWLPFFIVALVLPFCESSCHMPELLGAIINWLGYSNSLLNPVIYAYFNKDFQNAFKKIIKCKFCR", "experiment": "[35S]GTPγS binding to mice hippocampal membranes", "type": "biochemical", "method": "The hippocampi of mice were dissected and homogenized in 5 volumes of ice-cold buffer (25 mM Tris-HCl, 0.5 mM dithiothreitol, and 0.5 mM EGTA, pH 7.4). The homogenate was centrifuged (1,000 × g for 5 min at 4 °C) and the resultant supernatant was removed. The remaining pellet was resuspended in buffer, homogenized, and centrifuged. The two supernatants obtained were combined and centrifuged at […] at 4 °C and the pellets were resuspended in membrane preparation buffer. The volumes were adjusted prior to the determination of protein concentration by Bradford method[56] and stored at −80 °C until required. […] The reactions were initiated by the addition of 25 μl [^35S]-GTPγS, followed by a 20 min incubation at 20 °C. The reactions were terminated by rapid filtration. The filters were placed in liquid scintillation cocktail in counting vials. The liquid scintillation spectroscopy was used to measure the radioactivity bound to the filter paper after 10 hour."}, "mice [2]": {"tested_on": "mice", "details": "mouse, in vivo; for behavioural observation: male, Swiss", "method": "A modified method that was adopted by Malone[57] was used in the present study to evaluate general pharmacological alterations in mice following administration of D1. This test permits the observation of behavioural change, report of possible toxic effect or death occurrence in addition to variations in pharmacological responses to different route of drug administrations. Group of animals were subjected to s.c, i.p, or p.o route of D1 administrations at the doses of 2, 10, 50 or 250 mg/kg or vehicle 10 mL/kg and observed for 7 days."}, "mice [3]": {"tested_on": "mice", "experiment": "FS test after AMPT, PCPA, PRAZ or WAY pretreatment (mechanism of antidepressant-like effect of D1)", "type": "in vivo, Male Swiss mice", "method": "Mice were pretreated (i.p) with saline solution or AMPT 100 mg/kg (catecholamine depletor) 4 h prior to the oral administration of vehicle 10 mL/kg or D1 5 mg/kg. […] In a separate experiment, pretreatment (i.p) of mice with saline solution or PCPA 100 mg/kg (serotonin depletor) for four consecutive days prior to oral administration of vehicle or D1 5 mg/kg was used to investigate effect of serotonin depletion on antidepressant-like activity of this OAD. […] In all the four experiments, oral administration of vehicle or D1 5 mg/kg was followed by FS test (60 min interval between p.o. treatment and behavioural testing)."}, "mice [4]": {"tested_on": "mice", "experiment": "Forced swimming (FS) test", "type": "in vivo, Male Swiss mice", "details": "5 or 10 mg/kg p.o., vs vehicle, p < 0.05", "method": "as §1\nIn the FS model, mice were randomly divided into 5 groups [control (vehicle), 3 different doses of OAD and IMI]. Mice were exposed to a modified version of FS test[48] after oral administration of vehicle, OAD (5, 10 or 20 mg/kg) or IMI 15 mg/kg. FS apparatus is a cylindrical water container (42 cm in height, 18 cm in diameter) filled with water up to 30 cm (total volume ( [drawing 1] of 7635.06 cm^3 at 24 ± 2 °C). In this model, the initial escape-directed behaviour like swimming and climbing by mouse are generally followed with a relatively passive and immobile posture. The container was cleaned with 10% ethanol solution prior to the exposure of naïve mouse. This test session (6-min duration) was videotaped and the swimming and immobility time was later scored and analyzed."}}, "note": "Read-outs that look alike come from different tables or passages of the source."}
{"smiles": "C=CC(=O)O[C@H]1CC[C@]2(C)[C@H]3CC=C4[C@@H]5CC(C)(C)CC[C@]5(C(=O)O)CC[C@@]4(C)[C@]3(C)CC[C@H]2C1(C)C", "note": "[D1, Oleanolic acid acrylate]", "values": [{"measurement": "crossing at the centre of the OF", "setting": "mice [1]; 10 mg/kg p.o., vs vehicle", "value": "increase"}, {"measurement": "freezing time in the OF", "setting": "mice [1]; 20 mg/kg p.o., vs vehicle", "value": "increase"}, {"measurement": "other parameters of the OF test", "setting": "mice [1]; 5, 10, 20 mg/kg p.o., parameters not named as changed, p > 0.05", "value": "not altered"}, {"measurement": "time spent at the centre of the OF", "setting": "mice [1]; 10 and 20 mg/kg p.o., vs vehicle", "value": "increase"}, {"measurement": "EC50", "setting": "5-HT1A receptor; mice hippocampal membranes, read-out: Agonist potency (pEC50 ± SEM) (converted)", "value": 794, "unit": "nM"}, {"measurement": "Emax", "setting": "5-HT1A receptor; percentage of that produced by 10 μM (+)8-OH-DPAT, read-out: Intrinsic activity (Emax ± SEM in %)", "value": "26 ± 2", "unit": "%"}, {"measurement": "behavioural observation", "setting": "mice [2]", "value": "Total recovery from the effects of D1 without any sign of toxicity, weight gain or death occurence"}, {"measurement": "behavioural observation", "setting": "mice [2]; 50 mg/kg, 1 hr", "value": "Effects after 30 min of administrations persisted"}, {"measurement": "behavioural observation", "setting": "mice [2]; 250 mg/kg, 1 hr", "value": "Effects after 30 min of administrations persisted"}, {"measurement": "behavioural observation (text)", "setting": "mice [2]; 250 mg/kg", "value": "reduction in exploratory activity"}, {"measurement": "effect of AMPT pretreatment on antidepressant-like effect (swimming time)", "setting": "mice [3]; AMPT 100 mg/kg i.p. + D1 5 mg/kg p.o. versus SAL + D1, p > 0.05", "value": "did not attenuate"}, {"measurement": "effect of PCPA pretreatment on antidepressant-like effect (swimming time)", "setting": "mice [3]; PCPA 100 mg/kg i.p. four days + D1 5 mg/kg p.o. versus SAL + D1, p > 0.05", "value": "did not block"}, {"measurement": "effect of PRAZ pretreatment on antidepressant-like effect (swimming time)", "setting": "mice [3]; PRAZ 1 mg/kg i.p. + D1 5 mg/kg p.o. versus SAL + D1, p > 0.05", "value": "did not block"}, {"measurement": "swimming time in the FS test", "setting": "mice [3]; SAL + D1 5 mg/kg p.o. versus SAL + Vehicle, p < 0.05", "value": "increased the swimming time"}, {"measurement": "effect of WAY pretreatment on antidepressant-like effect (swimming time)", "setting": "mice [3]; WAY 0.3 mg/kg i.p. + D1 5 mg/kg p.o. versus SAL + D1, p < 0.05", "value": "significant blockade"}, {"measurement": "immobility time in the FS test", "setting": "mice [4]", "value": "reduction"}, {"measurement": "swimming time in the FS test", "setting": "mice [4]", "value": "significant increase"}]}
